How the values were obtained:
[1] = Compound stability test in plasma (human); format: in vitro ADME
Method: (§1) In this study, mouse, SD rat, Beagle, cynomolgus monkey and human plasma were used as materials to investigate the stability of the tested compounds in the plasma of the above five species. Propantheline, Enalapril, Bisacodyl and Procaine were used as control compounds.
(§2) The experimental conditions for the test compounds were as follows: • test concentration: 2 μM (DMSO ≤0.5%); • incubation times: 0, 10, 30, 60 and 120 minutes; • frozen plasma (from multiple species) was used in the test system; • incubation conditions: 37° C.
(§3) The mixed frozen plasma was thawed in a 37° C. water bath prior to the experiment. Plasma was centrifuged at 4000 rpm for 5 minutes and cleared if there was a clot. The pH will be adjusted to 7.4±0.1 if required.
(§4) The intermediate solution of 1 mM compound and positive control was prepared by diluting 10 mM stock solution with 90 μL of dimethyl sulfoxide. 100 μM solution was prepared by diluting 20 μL of intermediate solution (1 mM) with 180 μL of 45% methanol/water.
(§5) 2 μL of 100 μM solution was added to 98 μL of blank plasma to achieve a final concentration of 2 μM (in duplicate) of the sample, and the sample was incubated in a 37° C. water bath. At each time point (0, 10, 30, 60 and 120 min), 400 μL of termination solution (200 ng/mL toluenesulfonylurea and 200 ng/mL labetalol, 50% ACN/MeOH) was added to precipitate the proteins and mixed thoroughly. […]

[2] = biological target: HER2 exon 20 insertion (V777_G778ins > CG) enzyme (Homo sapiens, UniProt P04626, INS777CG); assay: Kinase assay (HTRF KinEASE TK), HER2 exon 20 insertion; format: biochemical
Sequence of HER2 exon 20 insertion (V777_G778ins > CG) enzyme (P04626 with tags, fused parts or gaps INS777CG limits assumed): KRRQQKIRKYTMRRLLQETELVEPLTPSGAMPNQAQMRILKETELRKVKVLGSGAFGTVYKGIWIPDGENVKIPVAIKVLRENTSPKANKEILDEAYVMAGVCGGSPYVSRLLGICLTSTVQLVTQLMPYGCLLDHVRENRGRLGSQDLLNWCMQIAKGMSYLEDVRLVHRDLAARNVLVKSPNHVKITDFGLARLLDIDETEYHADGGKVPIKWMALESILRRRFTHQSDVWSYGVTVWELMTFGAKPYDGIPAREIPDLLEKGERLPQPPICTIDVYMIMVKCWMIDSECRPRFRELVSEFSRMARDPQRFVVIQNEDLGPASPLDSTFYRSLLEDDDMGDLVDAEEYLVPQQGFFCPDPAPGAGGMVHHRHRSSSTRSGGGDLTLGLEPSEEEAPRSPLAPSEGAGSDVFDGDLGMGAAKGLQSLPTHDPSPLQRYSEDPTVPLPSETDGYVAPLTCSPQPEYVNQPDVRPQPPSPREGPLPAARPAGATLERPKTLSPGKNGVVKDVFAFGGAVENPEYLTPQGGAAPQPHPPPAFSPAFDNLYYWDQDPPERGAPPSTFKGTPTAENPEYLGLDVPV
Source text: (§6) To detect the inhibitory effect of compounds on EGFR WT, EGFR (D770_N771insNPG), ERBB2 (V777_G778ins>CG), EGFR T790M/L858R enzyme activities
(§7) EGFR WT (Invitrogen, Cat. No. PR7295B), EGFR [L858R] (Invitrogen, Cat. No. PR7447A), EGFR [d746-750] (Invitrogen, Cat. No. PV6179), ATP (Sigma, Cat. No. A7699-1G), DMSO (Sigma, Cat. No. D2650), DTT (Sigma, Cat. No. 43815), 384-well plate, compound dilution plate (Greiner, Cat. No. 781280), 384-well plate, test plate (Perkin Elmer, Cat. No. 6007299), HTRF KinEASE TK Kit (Cisbio, Cat. No. 62TK0PEB), magnesium chloride (Sigma, Cat. No. M1028), Orthovanadate (Sigma, Cat. No. 56508), BSA (Sigma, Cat. No. A7030), HEPES (Life technology, Cat. No. 11344-041).
(§8) The final test concentrations of the test compounds ranged from 10 μM to 0.17 nM in 3-fold gradient dilutions at 11 concentrations.
(§9) The preparation of the buffer, 50 mM HEPES (pH 7.5), 0.01% BSA, 5 mM MgCl2, and 0.1 mM Orthovanadate were contained in the buffer. After the preparation of the buffer, the enzyme and substrate were mixed with pre-diluted prepared compounds of different concentrations, and the mixture was placed at room temperature for 15 minutes. […] After the reaction was completed, the antibody was added to the assay, incubated at room temperature for 60 minutes and then detected by Envision (plate reading instrument), and data were collected. […]

[3] = system: LU0387 EGFR-H773_V774insNPH cells; assay: Anti-proliferation activity test of LU-0387 cells; format: cell-based; conditions: Homo sapiens, 96 h, CTG, 4 days, read-out: Cell IC50 (anti-proliferation)
Method: (1) Anti-Proliferation Activity Test of LU-0387 (EGFR Exon 20 NPH Insertion Mutation) Cells
Fetal bovine serum FBS, CellTiter Glo® luminescent cell activity assay, 96-well clear flat-bottomed black-walled plate
A cell counter was used for cell counting, and cell viability was detected to ensure that the viability of each cell line was above 90%. Cell suspension was added to a 96-well plate to bring the cell density to the specified concentration and incubated overnight at 37° C., 5% CO2 and 95% humidity. The culture medium was added to the T0 plate, the CTG reagent was melted and the cell plate was equilibrated at room temperature. CTG solution was added to each well. The cell plate was vibrated to lyse the cells and the cold light values were read. The compound to be test and the control drug were diluted in a gradient to obtain a 10-fold solution. 10 μL of drug solution was added to each well of a 96-well plate that had been inoculated with cells. The incubation was continued at 37° C., 5% CO2, 95% humidity for 4 days, and CTG analysis was performed and cold light values were read separately. The data were analyzed using GraphPad Prism 5.0 software and IC50 values were calculated.
The IC50 data of the compounds of the present disclosure against EGFR exon 20 insertion mutation NPH in LU-0387 cells are shown in Table 4.

[4] = Compound stability test in plasma (monkey); format: in vitro ADME, cynomolgus monkey
Method: as §1, §2, §3, §4, §5

Wild-type EGFR enzymes = biological target: T1, Wild-type EGFR enzymes (Homo sapiens, UniProt P00533); assay: Kinase assay (HTRF KinEASE TK), EGFR WT; format: biochemical; conditions: read-out: Enzyme IC50
T1 construct: purchased Invitrogen PR7295B
T1 sequence (P00533 25-1210): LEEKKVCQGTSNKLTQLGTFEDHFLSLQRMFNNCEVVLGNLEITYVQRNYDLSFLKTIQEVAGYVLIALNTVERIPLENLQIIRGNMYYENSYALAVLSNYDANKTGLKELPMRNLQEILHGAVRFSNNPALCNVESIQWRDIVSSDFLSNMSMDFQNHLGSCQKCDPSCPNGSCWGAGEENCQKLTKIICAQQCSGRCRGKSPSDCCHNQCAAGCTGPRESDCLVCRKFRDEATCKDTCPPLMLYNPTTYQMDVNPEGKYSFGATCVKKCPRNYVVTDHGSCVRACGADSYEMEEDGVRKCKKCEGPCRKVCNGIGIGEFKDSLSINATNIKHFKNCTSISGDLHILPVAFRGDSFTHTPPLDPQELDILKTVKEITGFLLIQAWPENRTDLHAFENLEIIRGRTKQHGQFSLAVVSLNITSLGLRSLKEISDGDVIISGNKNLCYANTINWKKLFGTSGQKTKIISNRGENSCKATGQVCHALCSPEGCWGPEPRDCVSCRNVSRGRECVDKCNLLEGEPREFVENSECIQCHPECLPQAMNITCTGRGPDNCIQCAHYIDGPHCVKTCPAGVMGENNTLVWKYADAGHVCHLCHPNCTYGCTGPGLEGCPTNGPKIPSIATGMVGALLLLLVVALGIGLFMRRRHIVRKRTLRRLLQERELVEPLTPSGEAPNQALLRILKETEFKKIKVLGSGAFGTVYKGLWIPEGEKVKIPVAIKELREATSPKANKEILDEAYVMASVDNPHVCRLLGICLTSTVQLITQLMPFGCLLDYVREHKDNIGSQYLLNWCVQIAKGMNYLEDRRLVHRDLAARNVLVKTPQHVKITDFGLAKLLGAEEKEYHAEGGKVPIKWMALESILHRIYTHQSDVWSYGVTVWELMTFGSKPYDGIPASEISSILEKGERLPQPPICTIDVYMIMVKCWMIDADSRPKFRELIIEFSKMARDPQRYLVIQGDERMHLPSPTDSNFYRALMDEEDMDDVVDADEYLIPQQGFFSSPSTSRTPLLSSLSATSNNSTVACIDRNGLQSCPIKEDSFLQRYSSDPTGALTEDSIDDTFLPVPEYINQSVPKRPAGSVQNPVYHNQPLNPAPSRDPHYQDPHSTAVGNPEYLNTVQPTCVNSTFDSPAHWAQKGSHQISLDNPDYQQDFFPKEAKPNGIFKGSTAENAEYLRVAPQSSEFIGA
Source text: as §6, §7, §8, §9

[5] = pH 7.4, 37° C., read-out: In vitro plasma half-life T1/2

In vitro plasma stability (Residual percentage) ([1]; 120 minutes, 2 μM, 37° C.): 19% | half-life at 2 µM [1, 5]: 51.6 min | IC50 [2]: 1.86 nM | IC50 [3]: 25.6 nM | In vitro plasma stability (Residual percentage) ([4]; 120 minutes, 2 μM, 37° C.): 93.7% | half-life at 2 µM [4, 5]: > 289 min | IC50 (Wild-type EGFR enzymes): 0.39 nM
SMILES: C=CC(=O)Nc1cc(Nc2ncc(C(=O)OC(C)C)c(-c3cn(OC)c4ccccc34)n2)c(OC)cc1N(C)CCN(C)C.CS(=O)(=O)O [Compound 1]

Source: patent publication US11530196B2, “Pyrimidine compound acting on EGFR and ERBB2” (CHINA RESOURCES PHARMACEUTICAL HOLDINGS COMPANY LIMITED, priority 2019, dated 2022)
